According to BigSolDB 2.1:

NC[C@H]1O[C@H](O[C@H]2[C@H](O)[C@@H](O[C@H]3O[C@H](CO)[C@@H](O)[C@H](N)[C@H]3O)[C@H](N)C[C@@H]2N)[C@H](N)C[C@@H]1O
solubility (mole fraction)
Conditions | 283.15 K | 288.15 K | 293.15 K | 294.15 K | 298.15 K | 303.15 K | 308.15 K | 313.15 K | 318.15 K
in DMF | – | – | 0.000144 | – | 0.000181 | 0.000249 | 0.000394 | 0.000663 | 0.000942
in DMSO | – | – | – | 0.0124 | 0.014 | 0.018 | 0.0236 | 0.0282 | 0.0351
in ethanol | 0.000436 | 0.000556 | 0.000708 | – | 0.00114 | 0.00191 | 0.00243 | – | –
in methanol | – | 0.000129 | 0.000133 | – | 0.000189 | 0.000284 | 0.000433 | 0.000635 | –
